Test results from US20090246292A1, “ANTIMICROBIAL FORMULATIONS COMPRISING A QUINONE AND A COPPER SALT” (priority 2006, published 2009).
Where two headings read alike, the source gives them in different places.

What was measured:
P. acnes NCTC 737 [1] = assay: Minimum bactericidal concentration (MBC) assay; format: cell-based, Propionibacterium acnes
Protocol: (§1) (b) Minimum Bactericidal Concentration (MBC) Assay
(§2) Following incubation they were examined visually for bacterial growth.

P. acnes NCTC 737 [2] = assay: Disc diffusion assay (DDA), also supplemented;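 note: paper disc carrying compound placed on inoculated Wilkins-Chalgren Anaerobe agar pH 6.0, with lipid or NaCl supplement where listed, anaerobic 37 °C for 72 h, inhibition zone diameter read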
S. aureus ATCC 29213 [3] = assay: Minimum inhibitory concentration (MIC) assay; format: cell-based, Staphylococcus aureus
Text: (§3) (a) Minimum Inhibitory Concentration (MIC) Assay
(§4) The culture media were as described above.
(§5) The assays included both negative (culture medium with no micro-organisms) and positive (culture medium plus diluting solvent plus micro-organism) controls.

P. acnes NCTC 737 [4] = assay: Synergy disc diffusion assay (SDDA), also supplemented
S. aureus ATCC 29213 [5] = assay: Disc diffusion assay (DDA), also supplemented
Protocol: The staphylococci were cultured and maintained on Mueller-Hinton Medium (agar and broth) at pH 7.2; cultures were incubated aerobically at 37° C. for 19-20 hours.
(d) Disc Diffusion Assay (DDA)
A sterile paper disc was impregnated with a sample of the test compound in a suitable solvent and 30 minutes allowed for the solvents to evaporate (where possible). The disc was then placed on an agar plate onto which the test micro-organism had been inoculated. The plate was then incubated under the conditions described above, following which it was examined visually for signs of bacterial growth. […] The diameter of this zone of “inhibition” was measured using a ProtoCOL™ automated zone sizer (Synbiosis, Cambridge, UK).
(f) Supplemented Disc Diffusion Assays
(§6) For assays using S. aureus ATCC 29213 the supplements used were sodium chloride (100 mM), lipid (Tween™ 80 at 1% v/v) and horse serum (5% v/v).

S. aureus ATCC 29213 [6] = assay: Synergy disc diffusion assay (SDDA), also supplemented;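 note: disc diffusion on Mueller-Hinton agar at pH 7.2, aerobic incubation at 37 °C lasting 19-20 h, two compounds assessed jointly for combined antimicrobial effect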
Protocol: (e) Synergy Disc Diffusion Assay (SDDA)
This is a variation on the DDA method, in which two compounds are tested together for their combined antimicrobial activity.
Two test compounds A and B were placed on a single paper disc and the above described DDA procedure repeated.
(f) Supplemented Disc Diffusion Assays
as §6

S. aureus ATCC 29213 [7] = assay: Minimum bactericidal concentration (MBC) assay; format: cell-based, Staphylococcus aureus
Protocol: as §1, §2

P. acnes NCTC 737 [8] = assay: Minimum inhibitory concentration (MIC) assay; format: cell-based, Propionibacterium acnes
Text: as §3, §4, §5

[9] = copper salt alone, P. acnes NCTC 737
[10] = copper salt alone, 200 μg per disc (silicate 62 μg), 1% (v/v) Tween 80
[11] = copper salt alone, 200 μg per disc (silicate 62 μg), salt and 1% (v/v) Tween 80
[12] = copper salt alone, 200 μg per disc (silicate 62 μg), sodium chloride (100 mM)
[13] = copper salt alone, S. aureus ATCC 29213
[14] = copper salt + TBHQ on one disc, 200 μg of each (silicate 62 μg), salt and lipid (1% (v/v) Tween 80)
[15] = copper salt + TBHQ on one disc, 200 μg of each (silicate 62 μg), unsupplemented
[16] = copper salt + TBHQ vs larger zone of either compound alone, unsupplemented
[17] = copper salt + TBHQ, salt and lipid (1% (v/v) Tween 80)
[18] = copper salt + TBHQ, unsupplemented
[19] = copper salt alone, 200 μg per disc (silicate 62 μg), Tween 80 at 1% v/v
[20] = copper salt alone, 200 μg per disc (silicate 62 μg), salt and horse serum (5% v/v)
[21] = copper salt + TBHQ on one disc, 200 μg of each (silicate 62 μg), salt and serum supplements
[22] = copper salt + TBHQ, salt and serum supplements

Substance: Copper (I) oxide
- MBC (P. acnes NCTC 737 [1]; [9]): 31.25 µg/mL
- DDA + lipid (P. acnes NCTC 737 [2]; [10]): 37.42 mm
- DDA + salt & lipid (P. acnes NCTC 737 [2]; [11]): 43.49 mm
- DDA + salt (P. acnes NCTC 737 [2]; [12]): 44.85 mm
- MIC (S. aureus ATCC 29213 [3]; [13]): >250 µg/mL
- SL SDDA with TBHQ (P. acnes NCTC 737 [4]; [14]): 51.73 mm
- SDDA with TBHQ (P. acnes NCTC 737 [4]; [15]): 50.06 mm
- SDDA increase (P. acnes NCTC 737 [4]; [16]): 1.25 mm
- SL SDDA area increase (P. acnes NCTC 737 [4]; [17]): 41.48%
- SL SDDA increase (P. acnes NCTC 737 [4]; [17]): 8.24 mm
- SDDA area increase (P. acnes NCTC 737 [4]; [18]): 5.18%
- DDA + lipid (S. aureus ATCC 29213 [5]; [19]): 0 mm
- DDA + salt & serum (S. aureus ATCC 29213 [5]; [20]): 0 mm
- DDA + salt (S. aureus ATCC 29213 [5]; [12]): 0 mm
- SS SDDA with TBHQ (S. aureus ATCC 29213 [6]; [21]): 45.26 mm
- SDDA with TBHQ (S. aureus ATCC 29213 [6]; [15]): 57.05 mm
- SDDA increase (S. aureus ATCC 29213 [6]; [16]): 16.63 mm
- SS SDDA area increase (S. aureus ATCC 29213 [6]; [22]): 7.37%
- SS SDDA increase (S. aureus ATCC 29213 [6]; [22]): 1.58 mm
- SDDA area increase (S. aureus ATCC 29213 [6]; [18]): 99.21%
- MBC (S. aureus ATCC 29213 [7]; [13]): >250 µg/mL
- MIC (P. acnes NCTC 737 [8]; [9]): 1.95 µg/mL
- MIC/MBC ratio (P. acnes NCTC 737 [8]; [9]): 0.06

Substance: Copper (II) salicylate
- MBC (P. acnes NCTC 737 [1]): 31.25 µg/mL
- DDA (P. acnes NCTC 737 [2]): 47.77 mm
- DDA + lipid (P. acnes NCTC 737 [2]): 41.75 mm
- DDA + salt (P. acnes NCTC 737 [2]): 46.08 mm
- DDA + salt & lipid (P. acnes NCTC 737 [2]): 50.69 mm
- MIC (S. aureus ATCC 29213 [3]): 250 µg/mL
- MIC/MBC ratio (S. aureus ATCC 29213 [3]): <1
- SDDA area increase (P. acnes NCTC 737 [4]): 150.52%
- SDDA increase (P. acnes NCTC 737 [4]): 27.84 mm
- SDDA with TBHQ (P. acnes NCTC 737 [4]): 75.61 mm
- SL SDDA area increase (P. acnes NCTC 737 [4]): 84.98%
- SL SDDA increase (P. acnes NCTC 737 [4]): 18.25 mm
- SL SDDA with TBHQ (P. acnes NCTC 737 [4]): 68.94 mm
- DDA (S. aureus ATCC 29213 [5]): 0 mm
- DDA + lipid (S. aureus ATCC 29213 [5]): 0 mm
- DDA + salt (S. aureus ATCC 29213 [5]): 0 mm
- DDA + salt & serum (S. aureus ATCC 29213 [5]): 0 mm
- SDDA area increase (S. aureus ATCC 29213 [6]): 61.52%
- SDDA increase (S. aureus ATCC 29213 [6]): 10.95 mm
- SDDA with TBHQ (S. aureus ATCC 29213 [6]): 51.37 mm
- SS SDDA area increase (S. aureus ATCC 29213 [6]): 9.37%
- SS SDDA increase (S. aureus ATCC 29213 [6]): 2.00 mm
- SS SDDA with TBHQ (S. aureus ATCC 29213 [6]): 45.68 mm
- MBC (S. aureus ATCC 29213 [7]): >250 µg/mL
- MIC (P. acnes NCTC 737 [8]): 7.8 µg/mL
- MIC/MBC ratio (P. acnes NCTC 737 [8]): 0.25

Substance: Copper (II) silicate
- MBC (P. acnes NCTC 737 [1]; [9]): 38.75 µg/mL
- DDA + salt & lipid (P. acnes NCTC 737 [2]; Example 8, single compound, salt and 1% (v/v) triolein): 42.56 (±2.18) mm
- DDA + lipid (P. acnes NCTC 737 [2]; [10]): 33.40 mm
- DDA + salt & lipid (P. acnes NCTC 737 [2]; [11]): 48.81 mm
- DDA + salt (P. acnes NCTC 737 [2]; [12]): 41.44 mm
- MIC (S. aureus ATCC 29213 [3]; [13]): >77.5 µg/mL
- SL SDDA with TBHQ (P. acnes NCTC 737 [4]; [14]): 54.96 mm
- SDDA with TBHQ (P. acnes NCTC 737 [4]; [15]): 54.44 mm
- SDDA increase (P. acnes NCTC 737 [4]; [16]): 8.76 mm
- SL SDDA area increase (P. acnes NCTC 737 [4]; [17]): 26.80%
- SL SDDA increase (P. acnes NCTC 737 [4]; [17]): 6.15 mm
- SDDA area increase (P. acnes NCTC 737 [4]; [18]): 42.03%
- DDA + salt & serum (S. aureus ATCC 29213 [5]; Example 9, single compound, salt and serum): 0.00 (±0.00) mm
- DDA + lipid (S. aureus ATCC 29213 [5]; [19]): 0 mm
- DDA + salt & serum (S. aureus ATCC 29213 [5]; [20]): 0 mm
- DDA + salt (S. aureus ATCC 29213 [5]; [12]): 0 mm
- SS SDDA with TBHQ (S. aureus ATCC 29213 [6]; [21]): 57.26 mm
- SDDA with TBHQ (S. aureus ATCC 29213 [6]; [15]): 71.79 mm
- SDDA increase (S. aureus ATCC 29213 [6]; [16]): 31.37 mm
- SS SDDA area increase (S. aureus ATCC 29213 [6]; [22]): 71.85%
- SS SDDA increase (S. aureus ATCC 29213 [6]; [22]): 13.58 mm
- SDDA area increase (S. aureus ATCC 29213 [6]; [18]): 215.45%
- MBC (S. aureus ATCC 29213 [7]; [13]): >77.5 µg/mL
- MIC (P. acnes NCTC 737 [8]; [9]): 4.84 µg/mL
- MIC/MBC ratio (P. acnes NCTC 737 [8]; [9]): 0.125

Substance: Copper (II)-D-gluconate
- MBC (P. acnes NCTC 737 [1]; [9]): 125 µg/mL
- DDA (P. acnes NCTC 737 [2]): 45.37 mm
- DDA + lipid (P. acnes NCTC 737 [2]; [10]): 27.36 mm
- DDA + salt & lipid (P. acnes NCTC 737 [2]; [11]): 47.04 mm
- DDA + salt (P. acnes NCTC 737 [2]; [12]): 37.93 mm
- MIC (S. aureus ATCC 29213 [3]; [13]): >250 µg/mL
- SL SDDA with TBHQ (P. acnes NCTC 737 [4]; [14]): 53.19 mm
- SDDA with TBHQ (P. acnes NCTC 737 [4]; [15]): 53.5 mm
- SDDA increase (P. acnes NCTC 737 [4]; [16]): 8.13 mm
- SL SDDA area increase (P. acnes NCTC 737 [4]; [17]): 27.88%
- SL SDDA increase (P. acnes NCTC 737 [4]; [17]): 6.15 mm
- SDDA area increase (P. acnes NCTC 737 [4]; [18]): 39.05%
- DDA (S. aureus ATCC 29213 [5]): 0 mm
- DDA + lipid (S. aureus ATCC 29213 [5]; [19]): 0 mm
- DDA + salt & serum (S. aureus ATCC 29213 [5]; [20]): 0 mm
- DDA + salt (S. aureus ATCC 29213 [5]; [12]): 0 mm
- SS SDDA with TBHQ (S. aureus ATCC 29213 [6]; [21]): 53.37 mm
- SDDA with TBHQ (S. aureus ATCC 29213 [6]; [15]): 68.32 mm
- SDDA increase (S. aureus ATCC 29213 [6]; [16]): 27.90 mm
- SS SDDA area increase (S. aureus ATCC 29213 [6]; [22]): 49.29%
- SS SDDA increase (S. aureus ATCC 29213 [6]; [22]): 9.69 mm
- SDDA area increase (S. aureus ATCC 29213 [6]; [18]): 185.69%
- MBC (S. aureus ATCC 29213 [7]; [13]): >250 µg/mL
- MIC (P. acnes NCTC 737 [8]; [9]): 62.5 µg/mL
- MIC/MBC ratio (P. acnes NCTC 737 [8]; [9]): 0.5
